Test system: A549 cells
Assay: mRNA array gene expression analysis after transfection
Assay type: cell-based, human

## hsa-miR-126 (UCGUACCGUGAGUAAUAAUGC; synthetic pre-miR form, further chemistry not given here) [Synthetic hsa-miR-126 (Pre-miR™-hsa-miR-126, Ambion cat. no. AM17100)]
  Δ log2 PRNP mRNA: −0.8862 log2
A549, 30 nM
  Δ log2 ABAT mRNA: 0.7144 log2
  Δ log2 ABCC1 mRNA: −1.371 log2
  Δ log2 ABHD3 mRNA: −1.85 log2
  Δ log2 ACSM3 mRNA: 1.028 log2
  Δ log2 ACTR2 mRNA: 0.8699 log2
  Δ log2 ADAM9 mRNA: −1.175 log2
  Δ log2 ADK mRNA: −1.161 log2
  Δ log2 AES mRNA: −1.21 log2
  Δ log2 AHNAK mRNA: −1.362 log2
  Δ log2 ALDH6A1 mRNA: 0.9207 log2
  Δ log2 ANG /// RNASE4 mRNA: 0.8377 log2
  Δ log2 ANKRD46 mRNA: 1.489 log2
  Δ log2 ANPEP mRNA: 1.016 log2
  Δ log2 ANTXR1 mRNA: −1.152 log2
  Δ log2 APOH mRNA: 1.465 log2
  Δ log2 APP mRNA: 0.7951 log2
  Δ log2 AQP3 mRNA: 1.683 log2
  Δ log2 ARFRP1 mRNA: −0.7079 log2
  Δ log2 ARG2 mRNA: 0.8026 log2
  Δ log2 ARHGAP11A mRNA: −0.8591 log2
  Δ log2 ARHGDIA mRNA: −1.479 log2
  Δ log2 ARID5B mRNA: 0.8176 log2
  Δ log2 ARL2BP mRNA: 0.9301 log2
  Δ log2 ARTS-1 mRNA: 0.886 log2
  Δ log2 ASNS mRNA: −0.7092 log2
  Δ log2 ATP6V0E mRNA: 1.493 log2
  Δ log2 ATP6V1D mRNA: −1.206 log2
  Δ log2 B4GALT4 mRNA: −2.01 log2
  Δ log2 B4GALT6 mRNA: −0.8145 log2
  Δ log2 BCL2A1 mRNA: −0.8657 log2
  Δ log2 BCL6 mRNA: 1.023 log2
  Δ log2 BF mRNA: 1.375 log2
  Δ log2 BHLHB2 mRNA: −0.7321 log2
  Δ log2 BTG2 mRNA: 0.7161 log2
  Δ log2 C1R mRNA: 1.372 log2
  Δ log2 C1orf121 mRNA: −1.019 log2
  Δ log2 C2orf26 mRNA: −1.688 log2
  Δ log2 C2orf33 mRNA: −1.066 log2
  Δ log2 C3 mRNA: 1.751 log2
  Δ log2 C5orf15 mRNA: −1.099 log2
  Δ log2 C6orf75 mRNA: −1.159 log2
  Δ log2 C8orf1 mRNA: −1.201 log2
  Δ log2 C8orf32 mRNA: −1.162 log2
  Δ log2 C19orf28 mRNA: −1.583 log2
  Δ log2 CA11 mRNA: 0.8832 log2
  Δ log2 CCND1 mRNA: −0.7871 log2
  Δ log2 CCNG1 mRNA: 0.7209 log2
  Δ log2 CD9 mRNA: −1.226 log2
  Δ log2 CDC37L1 mRNA: −1.198 log2
  Δ log2 CDH4 mRNA: −1.072 log2
  Δ log2 CDH17 mRNA: 1.248 log2
  Δ log2 CEACAM1 mRNA: 1.002 log2
  Δ log2 CEBPD mRNA: 0.9196 log2
  Δ log2 CFH /// CFHL1 mRNA: 0.727 log2
  Δ log2 CGI-38 mRNA: 1.152 log2
  Δ log2 CGI-48 mRNA: 1.409 log2
  Δ log2 CHGB mRNA: 2.066 log2
  Δ log2 CHST11 mRNA: −0.8983 log2
  Δ log2 CMKOR1 mRNA: −0.9537 log2
  Δ log2 COL4A1 mRNA: −1.251 log2
  Δ log2 COL4A2 mRNA: −1.104 log2
  Δ log2 COPS7A mRNA: −0.7137 log2
  Δ log2 CP mRNA: 2.115 log2
  Δ log2 CPE mRNA: 0.8454 log2
  Δ log2 CPS1 mRNA: 0.7371 log2
  Δ log2 CTDSP2 mRNA: 1.119 log2
  Δ log2 CTDSPL mRNA: 0.7348 log2
  Δ log2 CTGF mRNA: 0.7924 log2
  Δ log2 CTPS mRNA: −1.07 log2
  Δ log2 CTSS mRNA: 0.9282 log2
  Δ log2 CXCL5 mRNA: 0.8706 log2
  Δ log2 CYP3A5 mRNA: 0.8111 log2
  Δ log2 DAAM1 mRNA: 0.7598 log2
  Δ log2 DCBLD2 mRNA: −1.329 log2
  Δ log2 DCUN1D1 mRNA: −1.329 log2
  Δ log2 DDC mRNA: 1.008 log2
  Δ log2 DDX3Y mRNA: 0.738 log2
  Δ log2 DHRS2 mRNA: 1.489 log2
  Δ log2 DIO2 mRNA: −1.213 log2
  Δ log2 DIPA mRNA: −0.8054 log2
  Δ log2 DKFZP586A0522 mRNA: 1.054 log2
  Δ log2 DLG5 mRNA: −1.467 log2
  Δ log2 DNAJB9 mRNA: 0.9599 log2
  Δ log2 DPYSL3 mRNA: −0.947 log2
  Δ log2 DSU mRNA: 0.9423 log2
  Δ log2 DUSP6 mRNA: 0.7153 log2
  Δ log2 EEF1D mRNA: 0.9871 log2
  Δ log2 EFHD2 mRNA: −1.109 log2
  Δ log2 EGFR mRNA: −1.333 log2
  Δ log2 EHF mRNA: 2.017 log2
  Δ log2 EML1 mRNA: −1.062 log2
  Δ log2 ENPP4 mRNA: 0.8064 log2
  Δ log2 EPHB2 mRNA: −0.8763 log2
  Δ log2 ERBB3 mRNA: 1.041 log2
  Δ log2 EREG mRNA: −0.7398 log2
  Δ log2 F2RL1 mRNA: −0.7846 log2
  Δ log2 F5 mRNA: 1.115 log2
  Δ log2 F8A1 mRNA: −0.8485 log2
  Δ log2 FAM46A mRNA: 0.8499 log2
  Δ log2 FAS mRNA: 0.9486 log2
  Δ log2 FBXO11 mRNA: 0.8295 log2
  Δ log2 FCMD mRNA: −0.8718 log2
  Δ log2 FGB mRNA: 1.118 log2
  Δ log2 FGFR1 mRNA: −0.7031 log2
  Δ log2 FGFR4 mRNA: 0.9059 log2
  Δ log2 FGL1 mRNA: 2.076 log2
  Δ log2 FLJ11184 mRNA: −0.9264 log2
  Δ log2 FLJ13910 mRNA: 1.05 log2
  Δ log2 FLJ20364 mRNA: −1.021 log2
  Δ log2 FLJ21159 mRNA: −1.12 log2
  Δ log2 FLJ31568 mRNA: 0.732 log2
  Δ log2 FLRT3 mRNA: 1.34 log2
  Δ log2 FMO5 mRNA: 1.277 log2
  Δ log2 FOSL1 mRNA: −0.9348 log2
  Δ log2 GABRA5 mRNA: −1.612 log2
  Δ log2 GALNT4 mRNA: 1.916 log2
  Δ log2 GALNT12 mRNA: −0.8981 log2
  Δ log2 GART mRNA: −1.022 log2
  Δ log2 GATM mRNA: 1.127 log2
  Δ log2 GCH1 mRNA: 0.9389 log2
  Δ log2 GLI2 mRNA: −0.8678 log2
  Δ log2 GLT25D1 mRNA: −1.17 log2
  Δ log2 GLUL mRNA: 0.734 log2
  Δ log2 GNA13 mRNA: 0.7394 log2
  Δ log2 GPR64 mRNA: −1.209 log2
  Δ log2 GREM1 mRNA: −1.049 log2
  Δ log2 GTF2B mRNA: −0.9795 log2
  Δ log2 GTSE1 mRNA: −0.7712 log2
  Δ log2 H2AFY mRNA: −0.841 log2
  Δ log2 H3F3B mRNA: −1.391 log2
  Δ log2 HERC4 mRNA: −1.409 log2
  Δ log2 HES1 mRNA: 0.8154 log2
  Δ log2 HIPK3 mRNA: 0.8255 log2
  Δ log2 HKDC1 mRNA: −0.8911 log2
  Δ log2 HLA-DMA mRNA: 1.267 log2
  Δ log2 HLA-DMB mRNA: 1.253 log2
  Δ log2 HMGA1 mRNA: −0.8703 log2
  Δ log2 IER3IP1 mRNA: 1.015 log2
  Δ log2 IFI16 mRNA: 0.7014 log2
  Δ log2 IFIT1 mRNA: 0.766 log2
  Δ log2 IL6R mRNA: 1.8 log2
  Δ log2 IL6ST mRNA: 0.7356 log2
  Δ log2 IL11 mRNA: −1.98 log2
  Δ log2 ILK mRNA: −1.193 log2
  Δ log2 INHBC mRNA: 0.988 log2
  Δ log2 ITGAV mRNA: −1.397 log2
  Δ log2 ITGB4 mRNA: −1.084 log2
  Δ log2 IVNS1ABP mRNA: −1.126 log2
  Δ log2 JUN mRNA: −1.257 log2
  Δ log2 KCNJ2 mRNA: 0.9432 log2
  Δ log2 KCNJ16 mRNA: 0.8637 log2
  Δ log2 KCNK5 mRNA: 0.9088 log2
  Δ log2 KCTD9 mRNA: −1.102 log2
  Δ log2 KIAA0152 mRNA: −1.121 log2
  Δ log2 KIAA0317 mRNA: −0.9984 log2
  Δ log2 KIAA0882 mRNA: 0.7061 log2
  Δ log2 KLC2 mRNA: −1.308 log2
  Δ log2 KLF4 mRNA: −1.01 log2
  Δ log2 LARP6 mRNA: −1.273 log2

— patent publication US20090131354A1, “miR-126 REGULATED GENES AND PATHWAYS AS TARGETS FOR THERAPEUTIC INTERVENTION” (priority 2007, published 2009)
